From patent US7960129B2, “Assays and methods for determining STIM2 activity” (The Queen's Medical Center, priority 2007, dated 2011)
Where two headings read alike, the source gives them in different places. Each block holds one compound with its values, some of them ahead of it.

Tests used:
[1] = target: T1, STIM1+CRACM1-expressing HEK293 cells (Homo sapiens, UniProt Q13586+Q96D31); assay: Whole-cell patch-clamp of CRAC currents in STIM1+CRACM1 cells; assay type: cell-based; conditions: 50 μM 2-APB; no IP3, [Ca2+]i buffered to 150 nM
T1 construct: expressed in transfected cells; host or cells: HEK293
T1 sequence (Q13586 23-685): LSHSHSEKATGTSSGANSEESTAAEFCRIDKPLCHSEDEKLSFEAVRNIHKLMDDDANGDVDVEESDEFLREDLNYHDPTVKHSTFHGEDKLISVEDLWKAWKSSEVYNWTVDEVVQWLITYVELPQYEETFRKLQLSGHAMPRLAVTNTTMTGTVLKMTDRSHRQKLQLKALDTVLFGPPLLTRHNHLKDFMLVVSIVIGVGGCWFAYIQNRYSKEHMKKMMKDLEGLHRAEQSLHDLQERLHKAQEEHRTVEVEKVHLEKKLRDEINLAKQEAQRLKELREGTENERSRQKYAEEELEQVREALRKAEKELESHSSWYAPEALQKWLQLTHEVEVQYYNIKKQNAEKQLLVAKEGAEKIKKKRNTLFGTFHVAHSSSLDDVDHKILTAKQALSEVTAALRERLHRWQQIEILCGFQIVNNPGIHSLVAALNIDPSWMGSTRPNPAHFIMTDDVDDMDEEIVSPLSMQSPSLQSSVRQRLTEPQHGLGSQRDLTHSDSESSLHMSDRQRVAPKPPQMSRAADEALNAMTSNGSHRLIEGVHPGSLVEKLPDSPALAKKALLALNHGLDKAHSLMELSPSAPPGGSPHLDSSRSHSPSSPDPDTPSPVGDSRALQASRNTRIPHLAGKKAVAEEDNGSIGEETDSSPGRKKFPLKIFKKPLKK
T1 sequence (Q96D31 whole entry): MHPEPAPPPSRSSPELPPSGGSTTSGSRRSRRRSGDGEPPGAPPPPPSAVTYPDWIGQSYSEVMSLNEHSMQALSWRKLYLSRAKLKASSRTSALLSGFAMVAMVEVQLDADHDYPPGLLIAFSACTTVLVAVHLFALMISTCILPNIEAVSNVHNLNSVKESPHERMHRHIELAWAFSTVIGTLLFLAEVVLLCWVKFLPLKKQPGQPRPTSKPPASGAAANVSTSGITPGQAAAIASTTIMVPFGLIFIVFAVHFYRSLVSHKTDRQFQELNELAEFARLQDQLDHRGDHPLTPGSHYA
Description: Patch-clamp experiments were performed in the tight-seal whole-cell configuration at 21-25° C. High-resolution current recordings were acquired using the EPC-9 (HEKA). […] Currents were filtered at 2.9 kHz and digitized at 100 μs intervals. Capacitive currents were determined and corrected before each voltage ramp. Extracting the current amplitude at −80 mV from individual ramp current records assessed the low-resolution temporal development of currents. […] All chemicals were purchased from Sigma-Aldrich Co.

CRAC currents = conditions: cited from earlier work; for doses that inhibit CRAC currents: high doses
[2] = target: T2, STIM2+CRACM1-expressing HEK293 cells (Homo sapiens, UniProt Q9P246); assay: Whole-cell patch-clamp of CRAC currents in STIM2+CRACM1 cells; assay type: cell-based; conditions: for suppression of the secondary phase of CRAC current: added to pipette solution: ATP 3 mM, GTP 0.3 mM, calmodulin 100 μM, [Ca2+]i 150 nM
T2 construct: expressed in transfected cells; host or cells: HEK293
T2 sequence (Q9P246 15-746): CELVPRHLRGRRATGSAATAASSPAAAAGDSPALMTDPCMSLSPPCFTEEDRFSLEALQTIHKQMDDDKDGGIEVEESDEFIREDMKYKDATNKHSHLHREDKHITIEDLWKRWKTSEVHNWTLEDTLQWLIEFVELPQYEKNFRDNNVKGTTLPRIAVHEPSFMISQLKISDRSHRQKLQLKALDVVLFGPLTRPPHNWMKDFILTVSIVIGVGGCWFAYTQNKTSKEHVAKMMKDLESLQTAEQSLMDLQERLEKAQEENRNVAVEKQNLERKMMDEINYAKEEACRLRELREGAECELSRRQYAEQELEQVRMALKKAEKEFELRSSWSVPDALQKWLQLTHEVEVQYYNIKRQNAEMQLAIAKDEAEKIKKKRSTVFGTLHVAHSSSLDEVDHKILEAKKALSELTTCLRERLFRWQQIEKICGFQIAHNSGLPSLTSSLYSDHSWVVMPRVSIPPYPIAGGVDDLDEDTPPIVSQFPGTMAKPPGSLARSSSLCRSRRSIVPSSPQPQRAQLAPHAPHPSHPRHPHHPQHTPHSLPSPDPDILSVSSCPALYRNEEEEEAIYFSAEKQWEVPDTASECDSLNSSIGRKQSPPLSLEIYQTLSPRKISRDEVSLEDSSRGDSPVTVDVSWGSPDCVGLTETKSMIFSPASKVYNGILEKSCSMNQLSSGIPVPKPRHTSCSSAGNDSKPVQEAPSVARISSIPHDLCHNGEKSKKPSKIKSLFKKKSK
Description: Patch-clamp experiments were performed in the tight-seal whole-cell configuration at 21-25° C. High-resolution current recordings were acquired using the EPC-9 (HEKA). Voltage ramps of 50 ms duration spanning a range of −100 to +100 mV were delivered from a holding potential of 0 mV at a rate of 0.5 Hz over a period of 100-700 sec. All voltages were corrected for a liquid junction potential of 10 mV (3 mV with Cl^− as main internal anion). Currents were filtered at 2.9 kHz and digitized at 100 μs intervals. Capacitive currents were determined and corrected before each voltage ramp. Extracting the current amplitude at −80 mV from individual ramp current records assessed the low-resolution temporal development of currents. Where applicable, statistical errors of averaged data are given as means±S.E.M. with n determinations. Standard external solutions were as follows (in mM): 120 NaCl, 10 CsCl, 2.8 KCl, 2 MgCl2, 10 CaCl2, 10 TEA-Cl, 10 HEPES, 10 glucose, pH 7.2 with NaOH, 300 mOsm. In some experiments, 2 μM or 50 μM 2-aminoethyldiphenyl borate (2-APB) or 10 μM G418 were added to the standard external solution and applied through wide-tipped puffer pipettes. Standard internal solutions were as follows (in mM): 120 Cs-glutamate, 8 NaCl, 10 Cs-BAPTA, 3 MgCl2, 10 HEPES, 0.02 IP3, pH 7.2 with CsOH, 300 mOsm. As indicated in the figure legends, for some experiments [Ca^2+]i was buffered to 150 nM by 20 mM Cs•BAPTA and 8 mM CaCl2 or 20 mM Cs•EGTA and 8.9 mM CaCl2. For passive-depletion experiments, the internal solution was supplemented with Cs•BAPTA in the absence of IP3 and Ca^2+. In some experiments, Cs-glutamate and Cs•BAPTA were equimolarly replaced by KCl and K•BAPTA. In others, G418, Na•ATP and Na•GTP or calmodulin were added to intracellular solutions as specified in the figure legends. All chemicals were purchased from Sigma-Aldrich Co.

Compound: NCCOB(c1ccccc1)c1ccccc1 [2-APB, 2-aminoethoxydiphenyl borate]
2-APB-induced current without store depletion [1]: not observed
doses that inhibit CRAC currents (CRAC currents; unit as printed in b55): ≥ 10 mM
doses that inhibit CRAC currents (CRAC currents): ≥ 0.01 mM
doses with facilitatory effects on CRAC currents (CRAC currents; low doses): ≤ 5 µM
CRAC currents activated by 2-APB ([2]; 50 μM 2-APB, stores depleted by IP3 or kept full ([Ca2+]i 150 nM), cells grown without G418): large, transient CRAC currents
CRACM1 currents induced by external application of 2-APB ([2]; 2 mM 2-APB as printed, cells grown in G418, no IP3-induced current): large CRACM1 currents
activation time of 2-APB-induced current ([2]; high-resolution recording at fixed membrane potential): within a few seconds
effect of 2-APB on G418-mediated suppression of CRAC currents ([2]; regardless of the filling state of stores): capable of overcoming the G418-mediated suppression

suppression of the secondary phase of CRAC current [2]: failed to suppress
Compound: Nc1ncnc2c1ncn2[C@@H]1O[C@H](COP(=O)(O)OP(=O)(O)OP(=O)(O)O)[C@@H](O)[C@H]1O [ATP]

Compound: CN[C@@H]1[C@@H](O)[C@@H](O[C@@H]2[C@@H](O)[C@H](O[C@H]3O[C@H]([C@@H](C)O)[C@@H](O)[C@H](O)[C@H]3N)[C@@H](N)C[C@H]2N)OC[C@]1(C)O [G418]
IC50 [2]: 0.52 µM
IC50 ([2]; half-maximal inhibitory concentration for IP3-induced CRACM1 currents, cells perfused with G418, both phases of the current): 0.5 µM

suppression of the secondary phase of CRAC current [2]: failed to suppress
Compound: Nc1nc2c(ncn2[C@@H]2O[C@H](COP(=O)(O)OP(=O)(O)OP(=O)(O)O)[C@@H](O)[C@H]2O)c(=O)[nH]1 [GTP]

suppression of the secondary phase of CRAC current [2]: secondary phase was observed
Compound: calmodulin
